Data on 3 molecules can be found in patent US5432058A, “Method for measuring human cholesterol absorption using metabolically stable isotopes” (priority 1992, dated 1995).

Details of data set [1]: species or system rabbits. The following applies: rabbit, in vivo. The protocol: [26,26,26,27,27,27]-^2 H-cholesterol shown if FIG. 2 was prepared by Dr. Eric Stohler of Biodesign, Inc. The deuterium in the labeled cholesterol is located on stable terminal methyl groups of the side chain. When both: ^13 C-cholesterol and ^2 H-cholesterols were given intravenously or orally to rabbits there was no change in the plasma ratio of the two cholesterols over one week.

A short description of data set [2]: Preparation of Intralipid infusate: filter passage and residual tracer in syringe and lines. Type of data set: physicochemical. The protocol: (§1) [23,24,25,26,27]-^13 C-cholesterol suitable for intra venous administration was prepared in a laminar flow hood. The labeled cholesterol was dissolved at 5 mg/ml in USP ethanol in a sterile container, water was added to 10% by volume in order to increase virucidal activity, and the solution was allowed to stand at room temperature for at least 6 hrs. The solvents were then sterilely removed and the cholesterol residue dissolved at 20 mg/ml in ethanol and passed through a 0.22 micron solvent-resistant filter. Aliquots were tested for sterility and dried aliquots for pyrogenicity using the Limulus assay, and the stock was kept frozen at -70° C. On the day of the experiment both the ^13 C-cholesterol and a small amount of 10% Intralipid were warmed to 37° C. and the ethanolic cholesterol was added dropwise to 4 volumes of Intralipid. After 5 minutes at 37° C. and 15 min. at room temperature the mixture was put through a 0.8 micron particulate filter. More than 94% of the labeled cholesterol passed through the filter. An aliquot containing approximately 15 mg. ^13 C-cholesterol was drawn into atared syringe and weighed. The syringe contents were injected over 5 minutes into a running saline infusion and the syringe was washed several times with saline.

The conditions of data set [3]: humans, background; cited from earlier work.
Data set [4] is described as follows: Dual stable isotope cholesterol absorption study in healthy subjects (oral and intravenous tracers, plasma tracer ratio by GC/MS on day 3). It is filed as in vivo, human. The following applies: for Fa at 72 h: human, in vivo, po, 30 mg. The protocol: There is a paucity of information concerning cholesterol absorption in humans, and one prominent reason for this deficiency is the need to administer long-lived radioactive cholesterol tracers. To eliminate this hazard, we have developed a procedure, based on that of Zilversmit (Prof. Soc. Exp. Med. Biol. 140:862-865, 1972), employing stable isotopic tracers of cholesterol. One metabolically stable cholesterol tracer is administered orally and a second metabolically stable cholesterol tracer is administered intravenously on day 0. The ratio of the two tracers is determined after equilibration on about day 3 by gas chromatography-mass spectrometry (GC/MS) with selected ion monitoring. Ion current peaks corresponding to the first and second tracers are corrected for spillover From each other and from endogenous cholesterol. Percent cholesterol absorption is calculated as the ratio of the cholesterol tracers. The use of stable cholesterol isotopes for the study of cholesterol absorption is feasible, precise, safe and allows broad application of cholesterol absorption measurements in humans including women and children, thereby Facilitating clinical genetic studies in groups about which little current data is available.
There is a waiting period after the cholesterol tracers of this invention have been administered to a human subject. The waiting period allows the ingested cholesterol tracer to reach equilibrium in the subject's blood. The waiting period can range from 12 hours to about 5 days or more. However, it is preferred that the waiting period is from about 24 hours to about 96 hours. Following the waiting period, a blood sample is withdrawn from the subject and analyzed by GC/MS techniques to determine the relative amount of the two cholesterol tracers and the natural cholesterols in the sample. The GC/MS data is corrected to provide the actual relative amounts of the cholesterol tracers in the blood sample and a cholesterol absorption percentage is calculated based upon the amount of cholesterol tracers introduced into the body in relation to the amount in the blood samples.
Five healthy subjects (three men and two women, age 22-34) underwent two cholesterol absorption studies separated by 4-6 weeks. Out patient subjects received a National Cholesterol Education Program step I diet prepared in the metabolic kitchen of the Washington University Clinical Research Center for five days. Starting two days before testing and ending three days after testing. The metabolically stable cholesterols were given on day 0 with a meal containing 240 ml of whole milk as a source of fat to assure contraction of the gallbladder.
as §1, with “saline. […]” for “saline.”

Structures are written as SMILES. Values joined by “and” are separate entries in the source; they are usually repeats but may differ in a detail not shown here. Equal values may be shown once. Read-outs that look alike come from different tables or passages of the source.

In the case of `C[C@H](C[13CH2][13CH2][13CH]([13CH3])[13CH3])[C@H]1CC[C@H]2[C@@H]3CC=C4C[C@@H](O)CC[C@]4(C)[C@H]3CC[C@]12C` [^13 C-cholesterol, [23,24,25,26,27]-^13 C-cholesterol], the “change in the plasma ratio of the two cholesterols” value in data set [1] is reported as “no change”. For the same molecule, the “labeled cholesterol passed through the filter” value in data set [2] (ethanolic cholesterol in 4 volumes of 10% Intralipid, 0.8 micron particulate filter) is “More than 94%”. Besides, in data set [2] (with use of Intralipid), the solubilization of cholesterol result is “quantitatively solubilized”; the “tracer cholesterol found in the syringe and intravenous lines” value is given as “less than 0.4%”.
As to `[2H]C([2H])([2H])C(CCC[C@@H](C)[C@H]1CC[C@H]2[C@@H]3CC=C4C[C@@H](O)CC[C@]4(C)[C@H]3CC[C@]12C)C([2H])([2H])[2H]` [^2 H-cholesterol, [26,26,26,27,27,27]-^2 H-cholesterol], the “change in the plasma ratio of the two cholesterols” value in data set [1] is “no change”.
Take `CC(C)CCC[C@@H](C)[C@H]1CC[C@H]2[C@@H]3CC=C4C[C@@H](O)CC[C@]4(C)[C@H]3CC[C@]12C` [cholesterol]: the “percent of cholesterol absorbed” value in data set [3] was 15% to 75. Also, the Fa at 72 h in data set [4] (mean of five healthy subjects, test 1, read-out: mean cholesterol absorption, Test 1) is 59.3 ± 8.4%; in data set [4] (mean of five healthy subjects, test 2, 4-6 weeks later, read-out: mean cholesterol absorption, Test 2) it was 57.6 ± 8.2%; in data set [4] (test 1, five healthy subjects, read-out: cholesterol absorption, range between subjects) it was 47 to 71%. The “cholesterol absorption, Test 1” value in data set [4] (individual subjects 1-5, oral ^2 H-cholesterol about 30 mg, i.v. ^13 C-cholesterol about 15 mg, plasma at three days, 4320 min) is 59.4% and 62.2% and 70.5% and 47.4% and 57.1%. For the same molecule, the “cholesterol absorption, Test 2” value in data set [4] (individual subjects 1-5, second study 4-6 weeks after Test 1, plasma at three days, 4320 min) is 62.4% and 58.0% and 67.2% and 45.4% and 55.0%. In addition, the “mean cholesterol absorption, Test 1” value in data set [4] (mean of five healthy subjects, test 1, 4320 min) is 59%.
